This passage reports inhibition results from patent US8754073B2, “Substituted piperazino-dihydrothienopyrimidines” (Boehringer Ingelheim International GmbH, priority 2007, dated 2014).

Where a name gives a salt, the structure may show the parent alone.

Sequence of PDE4B (Q07343 whole entry, species assumed): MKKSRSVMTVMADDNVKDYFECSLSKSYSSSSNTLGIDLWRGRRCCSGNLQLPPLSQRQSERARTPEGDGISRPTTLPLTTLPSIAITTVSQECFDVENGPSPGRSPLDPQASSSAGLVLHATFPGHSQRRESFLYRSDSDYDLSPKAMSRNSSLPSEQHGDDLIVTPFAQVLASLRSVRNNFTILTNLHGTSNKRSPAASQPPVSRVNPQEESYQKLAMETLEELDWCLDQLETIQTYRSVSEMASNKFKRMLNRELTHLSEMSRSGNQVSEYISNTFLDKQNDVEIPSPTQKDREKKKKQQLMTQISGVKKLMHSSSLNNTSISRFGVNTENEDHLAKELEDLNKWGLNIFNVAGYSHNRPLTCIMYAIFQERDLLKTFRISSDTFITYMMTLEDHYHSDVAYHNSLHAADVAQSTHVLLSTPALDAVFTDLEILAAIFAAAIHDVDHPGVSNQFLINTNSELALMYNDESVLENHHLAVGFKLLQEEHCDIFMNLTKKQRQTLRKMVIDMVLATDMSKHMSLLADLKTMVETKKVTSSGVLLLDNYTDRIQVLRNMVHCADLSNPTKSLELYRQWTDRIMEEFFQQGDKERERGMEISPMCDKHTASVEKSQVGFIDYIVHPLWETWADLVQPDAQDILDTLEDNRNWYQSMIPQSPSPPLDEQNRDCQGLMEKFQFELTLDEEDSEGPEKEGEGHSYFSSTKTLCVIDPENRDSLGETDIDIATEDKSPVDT

The target of the test is PDE4B (Homo sapiens, UniProt Q07343). The test can be described thus: Scintillation Proximity Assay (SPA) of PDE4B enzyme activity ([H3]-cAMP cleavage). The test is classed as biochemical. The following applies: test substance 1 μM; one-hour incubation of [H3]-cAMP with PDE4B enzyme at 30° C. As for the experimental part: The inhibitions (in %) at 1 μM of the individual Example substances are given in the following Table of Examples and were determined as follows:
The Scintillation Proximity Assay (SPA) (GE Healthcare, No. TRKQ7090) was carried out by using the different affinities of cyclic 3′-5′-adenosinemonophosphate (cAMP, low affinity) and linear 5′-adenosinemonophosphate (AMP, high affinity) for yttrium silicate scintillator beads. The cAMP specific phosphodiesterase (PDE) PDE4B cleaves the 3′-phosphoester bond of tritium-labelled [H3]-cAMP to form [H3]-5′-AMP. This [H3]-AMP accumulates on the scintillator beads because of its higher affinity for them and causes scintillation events (flashes of light) which are measured in a Wallac Microbeta Scintillation Counter.
The experiment starts with a one-hour incubation of [H3]-cAMP with the PDE4B enzyme in assay buffer at 30° C., in each case once with the Example substance to be tested (in a concentration of 1 μM) and once without the Example substance to be tested.
After this incubation, the reaction is stopped by the addition of the beads. The beads have an opportunity to settle in the next 45 minutes, then the measurement is carried out in the Scintillation Counter. If the substance is capable of inhibiting the enzymatic activity of the PDE4B, less [H3]-AMP is produced during the incubation phase and fewer scintillation events can be measured.
Consider `CN1C[C@@H](Nc2nc(N3CCC(c4c[nH]c5ccccc45)CC3)nc3c2[S+]([O-])CC3)CCC1=O` (stereo partly drawn) [Example 41], for which the inhibition – broadly, the percentage by which the read-out fell short of the control – at 1 µM was found to be 97%. Next, `CN1C[C@@H](Nc2nc(N3CCC(c4c[nH]cn4)CC3)nc3c2[S+]([O-])CC3)CCC1=O` (stereo partly drawn) [Example 42]: 95%; `CN1C[C@@H](Nc2nc(N3CCC4(CC3)c3ccccc3NC(=O)N4C)nc3c2[S+]([O-])CC3)CCC1=O` (stereo partly drawn) [Example 43, (S)-3′-Methyl-1-(4-(1-Methyl-6-Oxopiperidin-3-Ylamino)-5-Oxo-6,7-Dihydro-5H-5λ^4-Thieno[3,2-d]Pyrimidin-2-YL)-3′-Methyl-1′H-Spiro[Piperidin-4,4′-Quinazolin]-2′(3′H)-One]: 95%. As to `CN1C[C@@H](Nc2nc(N3CCC4(CC3)CN(S(C)(=O)=O)c3ccccc34)nc3c2[S+]([O-])CC3)CCC1=O` (stereo partly drawn) [Example 44], 1 µM produced 95% inhibition.

As for `CN1C[C@@H](Nc2nc(N3CCC(c4noc5ccccc45)CC3)nc3c2[S+]([O-])CC3)CCC1=O` (stereo partly drawn) [Example 45], the inhibition at 1 µM is 97%. `CN1C[C@@H](Nc2nc(N3CCC(c4cccc(O)c4)CC3)nc3c2[S+]([O-])CC3)CCC1=O` (stereo partly drawn) [Example 46]: at 1 µM the inhibition was 97%. Turning to `CN1C[C@@H](Nc2nc(N3CCC(O)(c4cc(F)cc(F)c4)CC3)nc3c2[S+]([O-])CC3)CCC1=O` (stereo partly drawn) [Example 47], at 1 µM the inhibition was 97%.

With `CN1C[C@@H](Nc2nc(N3CCC(c4ccncc4)CC3)nc3c2[S+]([O-])CC3)CCC1=O` (stereo partly drawn) [Example 48], the inhibition at 1 µM was 96%. Take `CN1C[C@@H](Nc2nc(N3CCC(c4ccc(C#N)cc4)CC3)nc3c2[S+]([O-])CC3)CCC1=O` (stereo partly drawn) [Example 49]: the inhibition at 1 µM is 96%. As for `CN1C[C@@H](Nc2nc(N3CCC4(CC3)OC(=O)Nc3ccccc34)nc3c2[S+]([O-])CC3)CCC1=O` (stereo partly drawn) [Example 50], the figure is 95%. Next, `CN1C[C@@H](Nc2nc(N3CCC4(CC3)NC(=O)Nc3ccccc34)nc3c2[S+]([O-])CC3)CCC1=O` (stereo partly drawn) [Example 51]: 83%. `CCc1[nH]c2ccc(F)cc2c1C1CCN(c2nc3c(c(N[C@H]4CCC(=O)N(C)C4)n2)[S+]([O-])CC3)CC1` (stereo partly drawn) [Example 52] showed an inhibition at 1 µM of 96%. Next, `Cc1noc(C2CCN(c3nc4c(c(N[C@H]5CCC(=O)N(C)C5)n3)[S+]([O-])CC4)CC2)n1` (stereo partly drawn) [Example 53]: 96%. Compound `CN1C[C@@H](Nc2nc(N3CCC(c4cccc(Cl)c4)CC3)nc3c2[S+]([O-])CC3)CCC1=O` (stereo partly drawn) [Example 54] yielded an inhibition at 1 µM of 97%.

As for `CN1C[C@@H](Nc2nc(N3CCC(C#N)(c4ccccc4)CC3)nc3c2[S+]([O-])CC3)CCC1=O` (stereo partly drawn) [Example 55, 1-[4-((S)-1-Methyl-6-Oxopiperidin-3-Ylamino)-5-Oxo-6,7-Dihydro-5H-5λ^4-Thieno[3,2-d]Pyrimidine-2-Yl]-4-Phenylpiperidine-4-Carbonitrile], the inhibition at 1 µM came to 96%. As for `[O-][S+]1CCc2nc(N3CCC(c4c[nH]c5ccccc45)CC3)nc(NC3CCOCC3)c21` (stereo not drawn) [Example 56], testing at 1 µM gave an inhibition of 96%. Turning to `[O-][S+]1CCc2nc(N3CCC(c4c[nH]cn4)CC3)nc(NC3CCOCC3)c21` (stereo not drawn) [Example 57], the inhibition at 1 µM was 86%. As for `CN1C(=O)Nc2ccccc2C12CCN(c1nc3c(c(NC4CCOCC4)n1)[S+]([O-])CC3)CC2` (stereo not drawn) [Example 58, 3′-Methyl-1-(4-(Tetrahydro-2H-Pyran-4-Ylamino)-5-Oxo-6,7-Dihydro-5H-5λ^4-Thieno[3,2-d]Pyrimidin-2-Yl)-1′H-Spiro[Piperidin-4,4′-Quinazolin]-2′(3′H)-One], the figure is 88%; as for `CS(=O)(=O)N1CC2(CCN(c3nc4c(c(NC5CCOCC5)n3)[S+]([O-])CC4)CC2)c2ccccc21` (stereo not drawn) [Example 59], 90%; as for `[O-][S+]1CCc2nc(N3CCC(c4noc5ccccc45)CC3)nc(NC3CCOCC3)c21` (stereo not drawn) [Example 60], 97%. Next, `[O-][S+]1CCc2nc(N3CCC(c4cccc(O)c4)CC3)nc(NC3CCOCC3)c21` (stereo not drawn) [Example 61]: 95%. Compound `[O-][S+]1CCc2nc(N3CCC(O)(c4cc(F)cc(F)c4)CC3)nc(NC3CCOCC3)c21` (stereo not drawn) [Example 62] yielded an inhibition at 1 µM of 96%. Next, `[O-][S+]1CCc2nc(N3CCC(c4ccncc4)CC3)nc(NC3CCOCC3)c21` (stereo not drawn) [Example 63]: 92%; `N#Cc1ccc(C2CCN(c3nc4c(c(NC5CCOCC5)n3)[S+]([O-])CC4)CC2)cc1` (stereo not drawn) [Example 64]: 96%; `O=C1Nc2ccccc2C2(CCN(c3nc4c(c(NC5CCOCC5)n3)[S+]([O-])CC4)CC2)O1` (stereo not drawn) [Example 65]: 94%.

In turn, `O=C1Nc2ccccc2C2(CCN(c3nc4c(c(NC5CCOCC5)n3)[S+]([O-])CC4)CC2)N1` (stereo not drawn) [Example 66] yielded an inhibition at 1 µM of 62%. For the compound `CCc1[nH]c2ccc(F)cc2c1C1CCN(c2nc3c(c(NC4CCOCC4)n2)[S+]([O-])CC3)CC1` (stereo not drawn) [Example 67], 1 µM produced 93% inhibition. As for `Cc1noc(C2CCN(c3nc4c(c(NC5CCOCC5)n3)[S+]([O-])CC4)CC2)n1` (stereo not drawn) [Example 68], the figure is 93%; as for `[O-][S+]1CCc2nc(N3CCC(c4cccc(Cl)c4)CC3)nc(NC3CCOCC3)c21` (stereo not drawn) [Example 69], 93%; as for `N#CC1(c2ccccc2)CCN(c2nc3c(c(NC4CCOCC4)n2)[S+]([O-])CC3)CC1` (stereo not drawn) [Example 70], 95%.

Turning to `[O-][S+]1CCc2nc(N3CCC(c4c[nH]c5ccccc45)CC3)nc(Nc3cccc(F)c3)c21` (stereo not drawn) [Example 71], the inhibition at 1 µM amounted to 96%. Next, `[O-][S+]1CCc2nc(N3CCC(c4c[nH]cn4)CC3)nc(Nc3cccc(F)c3)c21` (stereo not drawn) [Example 72]: 95%.

In turn, `CN1C(=O)Nc2ccccc2C12CCN(c1nc3c(c(Nc4cccc(F)c4)n1)[S+]([O-])CC3)CC2` (stereo not drawn) [Example 73, 1-(4-(3-fluorophenylamino)-5-oxo-6,7-dihydro-5H-5λ^4-thieno[3,2-d]pyrimidin-2-yl)-3′-methyl-1′H-spiro[piperidin-4,4′-quinazolin]-2′(3′H)-one] came in with an inhibition at 1 µM of 94%. Next, `CS(=O)(=O)N1CC2(CCN(c3nc4c(c(Nc5cccc(F)c5)n3)[S+]([O-])CC4)CC2)c2ccccc21` (stereo not drawn) [Example 74]: 95%; `[O-][S+]1CCc2nc(N3CCC(c4noc5ccccc45)CC3)nc(Nc3cccc(F)c3)c21` (stereo not drawn) [Example 75, [2-(4-Benzo[d]Isoxazol-3-Yl-Piperidin-1-Yl)-5-Oxo-6,7-6,7-Dihydro-5H-5λ^4-Thieno[3,2-d]Pyrimidin-4-Yl]-(3-Fluorophenyl)-Amine]: 97%.

Consider `[O-][S+]1CCc2nc(N3CCC(c4cccc(O)c4)CC3)nc(Nc3cccc(F)c3)c21` (stereo not drawn) [Example 76], for which the inhibition at 1 µM was found to be 97%. As for `[O-][S+]1CCc2nc(N3CCC(O)(c4cc(F)cc(F)c4)CC3)nc(Nc3cccc(F)c3)c21` (stereo not drawn) [Example 77], the figure is 96%; as for `[O-][S+]1CCc2nc(N3CCC(c4ccncc4)CC3)nc(Nc3cccc(F)c3)c21` (stereo not drawn) [Example 78, (3-Fluorophenyl)-[5-Oxo-2-(3.4.5.6-Tetrahydro-2H-[4,4′]Bipyridinyl-1-Yl)-6,7-Dihydro-5H-5λ^4-Thieno[3,2-d]Pyrimidin-4-Yl]-Amine Trifluoroacetate], 96%.

On to `N#Cc1ccc(C2CCN(c3nc4c(c(Nc5cccc(F)c5)n3)[S+]([O-])CC4)CC2)cc1` (stereo not drawn) [Example 79], for which 1 µM produced 96% inhibition. Next, `O=C1Nc2ccccc2C2(CCN(c3nc4c(c(Nc5cccc(F)c5)n3)[S+]([O-])CC4)CC2)O1` (stereo not drawn) [Example 80]: 94%.

Compound `O=C1Nc2ccccc2C2(CCN(c3nc4c(c(Nc5cccc(F)c5)n3)[S+]([O-])CC4)CC2)N1` (stereo not drawn) [Example 81] gave an inhibition at 1 µM of 83%. For `CCc1[nH]c2ccc(F)cc2c1C1CCN(c2nc3c(c(Nc4cccc(F)c4)n2)[S+]([O-])CC3)CC1` (stereo not drawn) [Example 82, {2-[4-(2-Ethyl-5-Fluoro-1H-Indol-3-Yl)-Piperidin-1-Yl]-5-Oxo-6,7-Dihydro-5H-5λ^4-Thieno[3,2-d]Pyrimidin-4-Yl}-(3-Fluorophenyl)-Amine], the inhibition at 1 µM was found to be 92%. Next, `Cc1noc(C2CCN(c3nc4c(c(Nc5cccc(F)c5)n3)[S+]([O-])CC4)CC2)n1` (stereo not drawn) [Example 83]: 96%; `[O-][S+]1CCc2nc(N3CCC(c4cccc(Cl)c4)CC3)nc(Nc3cccc(F)c3)c21` (stereo not drawn) [Example 84]: 95%; `N#CC1(c2ccccc2)CCN(c2nc3c(c(Nc4cccc(F)c4)n2)[S+]([O-])CC3)CC1` (stereo not drawn) [Example 85]: 96%. `[O-][S+]1CCc2nc(N3CCC(c4cccc(F)c4)CC3)nc(NC3CCOCC3)c21` (stereo not drawn) [Example 86] showed an inhibition at 1 µM of 94%. As for `[O-][S+]1CCc2nc(N3CCC(c4ccccc4F)CC3)nc(NC3(CO)CC3)c21` (stereo not drawn) [Example 87], the figure is 92%; as for `[O-][S+]1CCc2nc(N3CCC(c4ccccc4F)CC3)nc(NC3CCOCC3)c21` (stereo not drawn) [Example 88], 92%.
